Assays:
HL-60 leukemia cells = assay: Cytotoxicity assay: proliferation of HL-60 cells by 3H-thymidine uptake; type: cell-based; conditions: Homo sapiens, doxorubicin positive control at 1 μM on the plate of the test compound, read-out: % Inhibition of DOX (1 μM)
mice = conditions: intraperitoneal administration (route stated for arsenic trioxide); cited from earlier work

Row | Compound | inhibition at 1 µM (HL-60 leukemia cells) | LD50 (a dose at which 50% of animals die due to acute toxicity) (mice)
1 | COc1cccc2c1C(=O)c1c(O)c3c(c(O)c1C2=O)C[C@@](O)(C(=O)CO)C[C@@H]3O[C@H]1C[C@H](N)[C@H](O)[C@H](C)O1 [DOX, doxorubicin] | 100% | 
2 | arsenic trioxide |  | 10 mg/kg

Source: US8222440B2, “Compounds and methods for the treatment of cancer” (The Texas A&M University System, priority 2006, dated 2012)
